Measurements reported in article PMC10470178, “Long-acting lenacapavir protects macaques against intravenous challenge with simian-tropic HIV” (eBioMedicine, 2023).
Like-named read-outs stand apart in the source and are kept apart here.

What was measured:
[1] = system: stHIV-A19; assay: Multi-round replication assay of stHIV-A19 in primary human PBMCs (PERT readout); format: cell-based, simian-tropic HIV-1; conditions: three donors, RT in supernatant at 7 days
Method: Infectious stocks of stHIV-A19,[23] HIV-1 NL4-3, and SIVmac239 were produced in HEK-293T (RRID: CVCL_1926) cells transfected with full-length viral genome plasmids using the TransIT HEK-293 transfection reagent (Mirus Bio) according to the manufacturer’s instructions. Virus stock infectious titres were determined on TZM-bl reporter cells (RRID: CVCL_B478) as previously described.[26] For experiments using SupT1-CCR5 target cells (RRID: CVCL_X633),[27] cultures were maintained in RPMI 1640 medium supplemented with 10% foetal bovine serum (FBS), 2 mM glutamine, 100 U/ml penicillin, and 100 μg/ml streptomycin. […] Cells were then washed three times to remove input virus, counted, and cultured in triplicate in growth media containing serial threefold dilutions of LEN or no LEN (control). […] Culture supernatants were collected 7 days post-inoculation, clarified by centrifugation, and stored at −80 °C for later quantification of vRNA by quantitative reverse transcription polymerase chain reaction (qRT-PCR). […] The stHIV-A19 stock was quantified with a SYBR Green-based qPCR-based product-enhanced RT (PERT) assay using a purified reverse transcriptase (RT) protein standard, as previously described.[28] […] After 7 days, the virus in culture supernatants was quantified using the PERT assay. […]

[2] = format: in vivo, pigtail macaques (Macaca nemestrina)
Method: Sixteen male, purpose-bred pigtail macaques (Macaca nemestrina; ages 4.6–8.5 years at the time of study initiation) were housed at NIH-Bethesda (Supplementary Table S1). All study animals received enrofloxacin (10 mg/kg, administered orally, once per day for 10 days), paromomycin (25 mg/kg, administered orally, twice daily for 7–10 days), and fenbendazole (50 mg/kg administered orally, once per day for 5 days) two weeks to 43 months prior to study initiation. Lenacapavir or drug vehicle (sterile, preservative-free 57.5% w/v polyethylene glycol 300 in water) doses were administered to sedated animals via SC injection into the scapular region such that no more than 2 ml of solution was injected into a single SC site. Animals in the LEN pharmacokinetic evaluation study (N = 6) each received two doses of LEN, both at 15 mg/kg (N = 3) or at 50 mg/kg (N = 3), 6 weeks apart. Animals in the virus challenge experiment each received a single dose of LEN at 25 mg/kg (N = 3, LEN PrEP group) or drug vehicle (N = 4, vehicle control group) 30 days prior to stHIV-A19 challenge, or a cART regimen consisting of tenofovir disoproxil fumarate (TDF), emtricitabine (FTC), and dolutegravir (DTG) (N = 3, TDF/FTC/DTG group), coformulated and administered as previously described[29]^,[30] for 7 days beginning 3 days prior to stHIV-A19 challenge (Supplementary Figure S1). Hair was clipped and skin marked at LEN and vehicle injection sites to allow for subsequent visual and manual assessment and scoring of potential ISRs by non-blinded veterinary care staff. Complete blood counts (CBC) and serum chemistries were monitored prior to and at 2- to 4-week intervals after LEN administration for at least one year. Following the first dose of LEN in the PK study, one animal in the 50-mg/kg dosing group received 7 consecutive days of daily ketoprofen (2 mg/kg) administered intramuscularly for ISR analgesia at veterinary discretion. For the second dose of LEN in the PK study, all animals in the 50-mg/kg dosing group received 5–7 consecutive days of twice daily oral carprofen (2 mg/kg) analgesia administered prophylactically starting on the day of LEN dosing. In the IV challenge PrEP study, all LEN and vehicle control animals received 3–5 consecutive days of twice daily oral carprofen (2 mg/kg) analgesia administered prophylactically starting on the day of injection. For virus challenge, PrEP study animals each received 1 × 10^5 infectious units of stHIV-A19 injected intravenously. After LEN washout, LEN PrEP group animals received a single 50-mg/kg dose of rhesusized depleting anti-CD8α antibody (MT807R1, RRID: AB_2716320, NIH Nonhuman Primate Reagent Resource), administered SC to anesthetized animals.

[3] = parameters: method as in earlier work; conditions: single SC injection of 900 mg LEN, Phase 1b clinical trial; cited from earlier work

With `CC(C)(C#Cc1ccc(-c2ccc(Cl)c3c(NS(C)(=O)=O)nn(CC(F)(F)F)c23)c([C@H](Cc2cc(F)cc(F)c2)NC(=O)Cn2nc(C(F)(F)F)c3c2C(F)(F)[C@@H]2C[C@H]32)n1)S(C)(=O)=O` [LEN, Lenacapavir] the “mean EC95 against stHIV-A19 in human PBMC” value ([1]; calculated from EC50 with Hill coefficient 3.51) was 122 ± 31 pM, the “mean EC95 against stHIV-A19 in human PBMC” value ([1]; calculated from EC50 with Hill coefficient 3.51, listed as Lenacapavir) was 122 (±31 SD) pM and the “ISR cumulative incidence: Erythema” value ([2]; 15 mg/kg SC, Dose 1) was 3/3. The “ISR cumulative incidence: Hyperkeratosis” value ([2]; 15 mg/kg SC, Dose 1) was 2/3, the “ISR cumulative incidence: Nodule” value ([2]; 15 mg/kg SC, Dose 1) was 3/3 and the “ISR cumulative incidence: Ulceration” value ([2]; 15 mg/kg SC, Dose 1) was 0/3. For the same compound, the “ISR cumulative incidence: Erythema” value ([2]; 15 mg/kg SC, Dose 2) was 0/3, the “ISR cumulative incidence: Hyperkeratosis” value ([2]; 15 mg/kg SC, Dose 2) was 0/3 and the “ISR cumulative incidence: Nodule” value ([2]; 15 mg/kg SC, Dose 2) was 1/3. For the same compound, the “ISR cumulative incidence: Ulceration” value ([2]; 15 mg/kg SC, Dose 2) was 0/3, the “ISR cumulative incidence: Erythema” value ([2]; 25 mg/kg SC, Dose 1) was 0/3 and the “ISR cumulative incidence: Hyperkeratosis” value ([2]; 25 mg/kg SC, Dose 1) was 2/3. For the same compound, the “ISR cumulative incidence: Nodule” value ([2]; 25 mg/kg SC, Dose 1) was 3/3, the “ISR cumulative incidence: Ulceration” value ([2]; 25 mg/kg SC, Dose 1) was 2/3 and the “ISR cumulative incidence: Erythema” value ([2]; 50 mg/kg SC, Dose 1) was 0/3. The “ISR cumulative incidence: Hyperkeratosis” value ([2]; 50 mg/kg SC, Dose 1) was 0/3, the “ISR cumulative incidence: Nodule” value ([2]; 50 mg/kg SC, Dose 1) was 3/3 and the “ISR cumulative incidence: Ulceration” value ([2]; 50 mg/kg SC, Dose 1) was 1/3. The “ISR cumulative incidence: Erythema” value ([2]; 50 mg/kg SC, Dose 2) was 0/3, the “ISR cumulative incidence: Hyperkeratosis” value ([2]; 50 mg/kg SC, Dose 2) was 2/3 and the “ISR cumulative incidence: Nodule” value ([2]; 50 mg/kg SC, Dose 2) was 3/3. The “ISR cumulative incidence: Ulceration” value ([2]; 50 mg/kg SC, Dose 2) was 2/3, the “complete blood counts (CBC) and blood serum chemistries” value ([2]; PTMs that received SC LEN injections) was “No abnormalities or significant changes” and the “injection site reactions (ISRs), severity” value ([2]; some animals following some SC LEN injections) was “Mild to moderate”. For the same compound, the “mean plasma drug concentrations relative to PA-EC95, maintained for 6 months” value [3] was no less than 6 fold.
